Measurements reported in ChEMBL document CHEMBL1201862, “PubChem BioAssay data set” (2004).
Active and inactive are the calls of the source.

What was measured:
[1] = molecular target: T1, Ubiquitin-conjugating enzyme E2 N (Homo sapiens, UniProt P61088); assay type: functional;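 note: Dose-response confirmation in a TR-FRET assay detecting UBC13-driven polyubiquitin chain formation, inhibition measured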
T1 sequence (P61088 whole entry): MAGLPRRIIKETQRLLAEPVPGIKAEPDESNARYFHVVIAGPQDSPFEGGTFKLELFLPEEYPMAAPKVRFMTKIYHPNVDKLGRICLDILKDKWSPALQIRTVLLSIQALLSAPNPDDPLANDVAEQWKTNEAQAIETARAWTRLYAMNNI

[2] = molecular target: T2, Microphthalmia-associated transcription factor (Homo sapiens, UniProt O75030); experiment: reducers of TRPM1 reporter luminescence, concentration series – cell-based, SK-MEL-5, cherry-picked, set 3, MITF inhibitor project, dose response (AID 493073); assay type: functional;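 note: SK-MEL-5 melanoma cells with luciferase driven by the MITF target TRPM1 promoter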
T2 sequence (O75030 whole entry): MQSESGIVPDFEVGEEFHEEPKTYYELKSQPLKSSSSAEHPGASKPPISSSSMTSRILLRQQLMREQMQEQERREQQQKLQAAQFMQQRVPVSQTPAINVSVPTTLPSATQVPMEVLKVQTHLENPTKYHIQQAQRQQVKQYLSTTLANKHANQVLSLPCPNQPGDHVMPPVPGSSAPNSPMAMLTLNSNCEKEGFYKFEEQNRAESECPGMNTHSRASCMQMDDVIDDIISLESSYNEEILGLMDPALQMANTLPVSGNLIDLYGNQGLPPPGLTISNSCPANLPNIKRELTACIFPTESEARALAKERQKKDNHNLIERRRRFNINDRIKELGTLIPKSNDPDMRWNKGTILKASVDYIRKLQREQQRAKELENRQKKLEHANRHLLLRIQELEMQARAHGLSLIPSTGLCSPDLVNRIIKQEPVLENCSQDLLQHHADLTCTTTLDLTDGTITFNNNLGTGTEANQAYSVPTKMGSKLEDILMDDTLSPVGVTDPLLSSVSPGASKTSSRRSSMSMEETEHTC

[3] = system: A-375; experiment: proliferation inhibition in MITF-low A375 cells – cell-based, cherry-pick samples, set 2, counter-screen for MITF modulator project, dose response (AID 540335); assay type: functional; settings: Homo sapiens
[4] = molecular target: T3, RNA-binding protein pos-1 (Caenorhabditis elegans, UniProt G5EF15); experiment: disruptors of C. elegans POS-1 RNA interaction – biochemical, fluorescence polarization, dose response (AID 1964);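 note: purified POS-1 fused to maltose binding protein made in E. coli; potency of compounds blocking POS-1 binding to fluorescent RNA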
T3 sequence (G5EF15 whole entry): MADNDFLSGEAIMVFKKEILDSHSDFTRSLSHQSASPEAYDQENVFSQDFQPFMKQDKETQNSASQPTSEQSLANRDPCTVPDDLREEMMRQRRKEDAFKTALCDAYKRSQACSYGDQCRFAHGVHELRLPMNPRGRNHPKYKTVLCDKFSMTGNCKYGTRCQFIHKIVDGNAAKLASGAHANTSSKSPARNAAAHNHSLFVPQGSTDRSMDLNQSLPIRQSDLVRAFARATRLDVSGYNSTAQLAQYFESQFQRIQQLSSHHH

[5] = molecular target: T4, Zinc finger protein mex-5 (Caenorhabditis elegans, UniProt Q9XUB2); experiment: potency of MEX-5 RNA-binding blockers – biochemical, C. elegans, fluorescence polarization, dose response (AID 1960)
T4 sequence (Q9XUB2 whole entry): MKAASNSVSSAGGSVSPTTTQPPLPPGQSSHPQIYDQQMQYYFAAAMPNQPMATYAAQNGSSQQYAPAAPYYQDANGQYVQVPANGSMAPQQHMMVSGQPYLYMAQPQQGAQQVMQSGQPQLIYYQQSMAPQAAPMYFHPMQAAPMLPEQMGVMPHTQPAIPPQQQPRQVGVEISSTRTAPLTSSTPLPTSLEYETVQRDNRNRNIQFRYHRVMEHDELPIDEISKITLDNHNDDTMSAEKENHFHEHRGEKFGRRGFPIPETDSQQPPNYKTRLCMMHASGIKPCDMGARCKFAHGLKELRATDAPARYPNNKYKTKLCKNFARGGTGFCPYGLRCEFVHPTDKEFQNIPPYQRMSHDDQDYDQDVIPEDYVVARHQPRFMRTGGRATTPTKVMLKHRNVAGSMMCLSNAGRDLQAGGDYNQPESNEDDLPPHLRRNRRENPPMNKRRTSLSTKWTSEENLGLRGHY

[6] = viability of PTEN-deleted HCT116 cells – cell-based, HCT116 PTEN knockout, dose response (AID 1047); assay type: functional;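 note: HCT116 colon tumor cells with PTEN knocked out; cells exposed to compound for 60 hours before readout; potency for loss of cell viability measured by luminescence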
[7] = viability of HCT116 lacking mutant beta-catenin – cell-based, human colon tumor, dose response (AID 1045); assay type: functional;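 note: HCT116 colon tumor cells with beta catenin knocked out; cells exposed to compound for 60 hours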
[8] = molecular target: X-box-binding protein 1 (Homo sapiens, UniProt P17861); assay type: functional, Cricetulus griseus;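 note: confirmatory dose-response counter-screen serving a CHOP assay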
Sequence of X-box-binding protein 1 (P17861 whole entry): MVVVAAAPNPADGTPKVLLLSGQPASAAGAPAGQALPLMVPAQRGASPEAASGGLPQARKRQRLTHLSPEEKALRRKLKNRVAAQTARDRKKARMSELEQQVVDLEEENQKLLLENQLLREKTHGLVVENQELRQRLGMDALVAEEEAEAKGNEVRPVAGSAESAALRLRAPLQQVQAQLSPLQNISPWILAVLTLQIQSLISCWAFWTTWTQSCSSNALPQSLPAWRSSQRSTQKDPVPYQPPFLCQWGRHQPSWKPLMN

[9] = molecular target: T5, Endoribonuclease toxin MazF (Escherichia coli K-12, UniProt P0AE70); experiment: activation of MazEF endoribonuclease cleavage – biochemical, fluorescence, single-stranded RNA substrate, uHTS hits, dose response (AID 588481); assay type: functional
T5 sequence (P0AE70 whole entry): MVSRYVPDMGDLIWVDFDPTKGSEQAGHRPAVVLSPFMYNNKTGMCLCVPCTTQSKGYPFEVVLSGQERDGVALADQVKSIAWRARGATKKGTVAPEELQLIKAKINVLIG

[10] = system: A-375; experiment: MITF: Counter assay: A375 proliferation Measured in Cell-Based System Using Plate Reader - 2084-03_Inhibitor_Dose_DryPowder_Activity. [Related pubchem assays (depositor defined):AID488944]; assay type: functional; settings: Homo sapiens
[11] = molecular target: T5, Endoribonuclease toxin MazF; experiment: substrate-only fluorescence increase artefacts – biochemical, single-stranded RNase substrate, counter-screen for MazEF activator project, dose response (AID 588502); assay type: functional
[12] = luciferase reporter signal suppression in cells – H4 neuroglioma cells, luminescence, dose response (AID 1990); assay type: functional, cell-based
[13] = Luminescence Cell-Based Dose Response HTS to Identify Inhibitors of 5'UTR Stem-Loop Driven Prion Protein mRNA Translation in H4 Neuroglioblastoma Cells. [Related pubchem assays: 1827 (Project Summary), 1813 (Primary HTS)]; assay type: functional
[14] = alpha-synuclein stem-loop luciferase translation blockers – H4 neuroglioma cells, luminescence, confirmation (AID 1988); assay type: functional, cell-based
[15] = molecular target: Large T antigen (Simian virus 40, UniProt P03070); assay type: functional, Betapolyomavirus macacae;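 note: Confirmatory-stage PubChem screen for compounds that inhibit SV40 T antigen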
Sequence of Large T antigen (P03070 whole entry): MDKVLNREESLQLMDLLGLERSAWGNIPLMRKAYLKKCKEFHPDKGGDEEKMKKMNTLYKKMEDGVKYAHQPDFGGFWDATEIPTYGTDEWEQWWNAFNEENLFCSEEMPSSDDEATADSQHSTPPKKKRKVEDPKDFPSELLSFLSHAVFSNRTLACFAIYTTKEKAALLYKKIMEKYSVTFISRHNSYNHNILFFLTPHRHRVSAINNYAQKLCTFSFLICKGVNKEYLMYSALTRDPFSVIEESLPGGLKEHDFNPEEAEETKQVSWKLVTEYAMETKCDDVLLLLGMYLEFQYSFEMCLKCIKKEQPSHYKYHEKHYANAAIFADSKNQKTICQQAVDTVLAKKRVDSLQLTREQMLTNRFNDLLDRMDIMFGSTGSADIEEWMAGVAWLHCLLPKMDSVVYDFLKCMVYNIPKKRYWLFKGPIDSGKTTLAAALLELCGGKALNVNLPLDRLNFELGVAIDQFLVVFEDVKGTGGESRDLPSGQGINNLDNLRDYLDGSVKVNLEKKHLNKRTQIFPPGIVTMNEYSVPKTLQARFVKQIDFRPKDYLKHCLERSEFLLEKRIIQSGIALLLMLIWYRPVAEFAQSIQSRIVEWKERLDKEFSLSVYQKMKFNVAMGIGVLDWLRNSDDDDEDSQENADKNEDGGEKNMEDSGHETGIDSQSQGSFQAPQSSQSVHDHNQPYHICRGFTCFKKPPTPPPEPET

[16] = molecular target: T6, CAAX prenyl protease 2 (Saccharomyces cerevisiae S288c, UniProt Q03530); assay type: biochemical
T6 sequence (Q03530 whole entry): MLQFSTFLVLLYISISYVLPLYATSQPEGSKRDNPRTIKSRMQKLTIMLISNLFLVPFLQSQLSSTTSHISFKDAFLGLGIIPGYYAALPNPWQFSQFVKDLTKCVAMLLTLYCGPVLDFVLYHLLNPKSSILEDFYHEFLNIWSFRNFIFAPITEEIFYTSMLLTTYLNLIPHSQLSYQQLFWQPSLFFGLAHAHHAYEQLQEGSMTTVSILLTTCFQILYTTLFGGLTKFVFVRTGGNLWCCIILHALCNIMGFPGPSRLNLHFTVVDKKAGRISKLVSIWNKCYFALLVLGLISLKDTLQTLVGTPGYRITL

[17] = molecular target: FAD-linked sulfhydryl oxidase ALR (Homo sapiens, UniProt P55789); experiment: ALR-catalysed DTT oxidation blockers – biochemical, H2O2 detection, luminescence, cherry-pick, dose response (AID 493248)
Sequence of FAD-linked sulfhydryl oxidase ALR (P55789 whole entry): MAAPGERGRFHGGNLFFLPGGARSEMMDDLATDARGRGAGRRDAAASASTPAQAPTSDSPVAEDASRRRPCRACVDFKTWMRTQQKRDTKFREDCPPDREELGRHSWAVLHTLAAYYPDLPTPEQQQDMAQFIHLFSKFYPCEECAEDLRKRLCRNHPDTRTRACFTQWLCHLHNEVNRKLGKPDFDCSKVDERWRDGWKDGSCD

[18] = molecular target: T7, Hexokinase HKDC1 (Homo sapiens, UniProt Q2TB90); experiment: inhibition of HKDC1 glucose phosphorylation – biochemical, W721R variant, dose response (AID 504729); assay type: functional
T7 sequence (Q2TB90 whole entry): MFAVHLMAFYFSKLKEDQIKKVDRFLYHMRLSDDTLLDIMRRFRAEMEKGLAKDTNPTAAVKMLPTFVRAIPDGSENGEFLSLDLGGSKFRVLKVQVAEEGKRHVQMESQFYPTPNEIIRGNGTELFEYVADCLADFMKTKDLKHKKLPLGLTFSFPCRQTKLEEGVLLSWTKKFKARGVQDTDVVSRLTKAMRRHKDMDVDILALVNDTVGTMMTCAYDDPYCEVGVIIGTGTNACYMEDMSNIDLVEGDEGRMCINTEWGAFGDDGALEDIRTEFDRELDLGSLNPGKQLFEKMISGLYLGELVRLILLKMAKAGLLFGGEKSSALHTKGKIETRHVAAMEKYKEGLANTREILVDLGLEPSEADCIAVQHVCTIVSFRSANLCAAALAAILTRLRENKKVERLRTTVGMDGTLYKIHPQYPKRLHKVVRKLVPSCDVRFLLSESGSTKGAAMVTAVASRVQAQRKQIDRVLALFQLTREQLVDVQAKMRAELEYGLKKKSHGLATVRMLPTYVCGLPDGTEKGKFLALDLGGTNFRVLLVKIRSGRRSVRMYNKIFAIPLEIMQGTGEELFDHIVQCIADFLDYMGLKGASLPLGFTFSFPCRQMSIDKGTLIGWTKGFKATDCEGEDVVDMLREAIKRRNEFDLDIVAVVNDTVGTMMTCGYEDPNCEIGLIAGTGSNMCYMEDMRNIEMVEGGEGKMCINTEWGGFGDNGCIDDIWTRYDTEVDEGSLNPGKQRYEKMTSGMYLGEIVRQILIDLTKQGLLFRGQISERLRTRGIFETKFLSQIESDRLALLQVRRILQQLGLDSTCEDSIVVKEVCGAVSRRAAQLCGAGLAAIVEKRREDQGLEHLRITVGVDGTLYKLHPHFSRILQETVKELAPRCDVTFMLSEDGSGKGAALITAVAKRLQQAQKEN

[19] = toxicity toward cultured mammalian cells – cell-based, plate reader, cherry-pick samples, cytotoxicity control, dose response (AID 504397); assay type: functional
[20] = molecular target: T8, Protein RecA (Mycobacterium tuberculosis, UniProt P9WHJ3); experiment: Fluorescence Cell-Free Homogeneous Dose Retest to Identify Inhibitors of RecA-Intein Splicing Activity. [Related pubchem assays (depositor defined):AID2097, AID2223, AID489010, AID492950]; assay type: functional
T8 sequence (P9WHJ3 whole entry): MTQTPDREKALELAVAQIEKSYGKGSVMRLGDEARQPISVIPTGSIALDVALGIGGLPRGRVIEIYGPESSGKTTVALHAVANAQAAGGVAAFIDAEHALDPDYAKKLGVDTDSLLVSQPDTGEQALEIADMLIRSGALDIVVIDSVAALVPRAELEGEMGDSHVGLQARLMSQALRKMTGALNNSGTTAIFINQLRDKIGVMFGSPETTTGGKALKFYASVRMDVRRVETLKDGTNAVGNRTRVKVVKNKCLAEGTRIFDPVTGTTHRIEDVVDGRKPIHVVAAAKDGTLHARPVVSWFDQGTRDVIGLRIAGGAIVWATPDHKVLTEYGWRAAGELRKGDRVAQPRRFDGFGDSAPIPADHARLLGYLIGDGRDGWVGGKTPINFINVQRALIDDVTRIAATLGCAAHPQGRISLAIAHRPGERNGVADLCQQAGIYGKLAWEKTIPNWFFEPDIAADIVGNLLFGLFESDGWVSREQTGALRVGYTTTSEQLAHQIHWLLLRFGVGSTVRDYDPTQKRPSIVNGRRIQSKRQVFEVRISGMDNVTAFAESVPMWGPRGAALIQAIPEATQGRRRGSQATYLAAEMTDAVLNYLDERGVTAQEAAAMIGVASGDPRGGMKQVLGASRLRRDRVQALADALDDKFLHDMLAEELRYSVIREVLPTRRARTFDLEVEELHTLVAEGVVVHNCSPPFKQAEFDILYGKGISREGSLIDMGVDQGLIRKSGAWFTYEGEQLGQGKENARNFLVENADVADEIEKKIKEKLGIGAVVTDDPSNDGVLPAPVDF

[21] = molecular target: Dual specificity tyrosine-phosphorylation-regulated kinase 1A (Rattus norvegicus, UniProt Q63470); assay type: biochemical, Homo sapiens

Cc1cccc(/C=C2/Sc3ccc(C(=O)NCCN4CCCC4)cc3NC2=O)c1
IC50 [1]: > 20 µM (inactive)
AC50 [2]: 18.4 µM (active)
AC50 [3]: 21.1 µM (active)

Br.N=c1n(CC(=O)c2ccc([N+](=O)[O-])cc2)c2ccccc2n1Cc1ccc(Cl)cc1
EC50 [4]: 125 µM (active)
EC50 [5]: > 300 µM (not active)
EC50 [6]: 5.38 µM (active)
EC50 [7]: 5.28 µM (active)
Absolute IC50 (XBP1) [8]: 10 µM
EC50 [9]: > 99 µM (inactive)
AC50 [10]: 22.2 µM (active)
EC50 [11]: 1.93 µM (active)

CN1c2ccc(C=O)c3c(C=O)ccc(c23)N(C)C1(C)C
EC50 [12]: 17.8 µM (active)
EC50 [4]: 74 µM (inconclusive)
EC50 [13]: 15.9 µM (active)
EC50 [5]: 5.37 µM (inconclusive)
EC50 [14]: > 120 µM (not active)
IC50 [15]: 23 µM (active)
AC50 [16]: 10.5 µM (active)
AC50 [17]: 1.54 µM (active)
IC50 [18]: 13.1 µM (active)
AC50 [19]: 45.7 µM (active)
EC50 [20]: 59.9 µM (inconclusive)
AC50 [21]: 0.199 µM (active)
